Reference: ChEMBL document CHEMBL4152340, “Targeting the MDM2-p53 protein-protein interaction with prenylchalcones: Synthesis of a small library and evaluation of potential antitumor activity” (Eur J Med Chem, 2018)
pIC50: −log10 of the molar value. Each block holds one molecule with its values, some of them ahead of it. Calls of active or inactive are those of the source. The rule behind the calls is not given here.

What was measured:
[1] = tested on: Saccharomyces cerevisiae; test: Growth inhibition of Saccharomyces cerevisiae expressing MDM2 at 1 to 50 uM after 42 hrs by Yeast-based assay; format: organism-based; conditions: in vivo
[2] = tested on: HCT-116; test: Antiproliferative activity against human HCT116 cells after 48 hrs by SRB assay; format: functional, cell-based; conditions: HCT-116, 48 h
[3] = tested on: Saccharomyces cerevisiae; test: Growth inhibition of Saccharomyces cerevisiae expressing p53 at 1 to 50 uM after 42 hrs by Yeast-based assay; format: organism-based; conditions: in vivo
[4] = molecular target: T1, Tumour suppressor p53/oncoprotein Mdm2 (Homo sapiens) (UniProt P04637+Q00987); test: Inhibition of human MDM2-p53 interaction in Saccharomyces cerevisiae assessed as p53 induced cell growth arrest at 1 to 50 uM after 42 hrs by Yeast-based assay; format: protein assay
[5] = tested on: Saccharomyces cerevisiae; test: Growth inhibition of Saccharomyces cerevisiae expressing empty vector at 1 to 50 uM after 42 hrs by Yeast-based assay; format: organism-based; conditions: in vivo
[6] = tested on: Saccharomyces cerevisiae; test: Growth inhibition of Saccharomyces cerevisiae expressing MDM2 at 10 uM after 42 hrs by Yeast-based assay; format: organism-based; conditions: in vivo
[7] = tested on: Saccharomyces cerevisiae; test: Growth inhibition of Saccharomyces cerevisiae expressing p53 at 10 uM after 42 hrs by Yeast-based assay; format: organism-based; conditions: in vivo
[8] = tested on: Saccharomyces cerevisiae; test: Growth inhibition of Saccharomyces cerevisiae expressing empty vector at 10 uM after 42 hrs by Yeast-based assay; format: organism-based; conditions: in vivo
[9] = tested on: HepG2; test: Antiproliferative activity against human HepG2 cells after 48 hrs by SRB assay; format: functional, cell-based; conditions: HepG2, 48 h
[10] = tested on: HCT-116; test: Anticlonogenic activity against human HCT116 cells after 11 days by crystal violet staining based assay; format: functional, cell-based; conditions: HCT-116, 264 h
[11] = tested on: A-375; test: Antiproliferative activity against human A375 cells after 48 hrs by SRB assay; format: functional, cell-based; conditions: A-375, 48 h
[12] = tested on: HCT-116; test: Induction of apoptosis in human HCT116 cells at 4.2 uM after 48 hrs by annexin V/FITC-propidium iodide staining-based flow cytometric method; format: functional, cell-based
[13] = molecular target: T1, Tumour suppressor p53/oncoprotein Mdm2 (Homo sapiens); test: Inhibition of MDM2-p53 interaction in human HCT116 cells assessed as p53 activation by measuring increase in MDM2 expression at 4.2 uM after 48 hrs by Western blot analysis; format: cell-based
[14] = tested on: HCT-116; test: Induction of mitochondrial ROS generation in human HCT116 cells at 4.2 uM after 48 hrs by MitoSOX dye-based flow cytometric analysis; format: functional, cell-based
[15] = molecular target: T1, Tumour suppressor p53/oncoprotein Mdm2 (Homo sapiens); test: Inhibition of MDM2-p53 interaction in human HCT116 cells assessed as p53 activation by measuring increase in cleaved-PARP level at 4.2 uM after 48 hrs by Western blot analysis; format: cell-based
[16] = Selectivity ratio of IC50 for human HFF to IC50 for human A375 cells; format: toxicity; conditions: HFF cells versus A375 cells, read-out: Ratio IC50
[17] = Selectivity ratio of IC50 for human HFF to IC50 for human MCF7 cells; format: toxicity; conditions: HFF cells versus MCF7 cells, read-out: Ratio IC50
[18] = Selectivity ratio of IC50 for human HFF to IC50 for human HepG2 cells; format: toxicity; conditions: HFF cells versus HepG2 cells, read-out: Ratio IC50
[19] = tested on: MCF7; test: Antiproliferative activity against human MCF7 cells after 48 hrs by SRB assay; format: functional, cell-based; conditions: MCF7, 48 h
[20] = molecular target: T1, Tumour suppressor p53/oncoprotein Mdm2 (Homo sapiens); test: Inhibition of MDM2-p53 interaction in human HCT116 cells assessed as p53 activation by measuring increase in PUMA level at 4.2 uM after 48 hrs by Western blot analysis; format: cell-based
[21] = molecular target: T1, Tumour suppressor p53/oncoprotein Mdm2 (Homo sapiens); test: Inhibition of MDM2-p53 interaction in human HCT116 cells assessed as p53 activation by measuring increase in GADD45 level at 4.2 uM after 48 hrs by Western blot analysis; format: cell-based
[22] = molecular target: T1, Tumour suppressor p53/oncoprotein Mdm2 (Homo sapiens); test: Inhibition of MDM2-p53 interaction in human HCT116 cells assessed as p53 activation by measuring decrease in Bcl-2 level at 4.2 uM after 48 hrs by Western blot analysis; format: cell-based
[23] = Selectivity ratio of IC50 for human HFF to IC50 for human HCT116 cells; format: toxicity; conditions: HFF cells versus HCT116 cells, read-out: Ratio IC50
[24] = tested on: HCT-116; test: Cell cycle arrest in human HCT116 cells assessed as accumulation at G2/M phase at 4.2 uM after 48 hrs by propidium iodide staining-based flow cytometric analysis; format: functional
[25] = molecular target: T1, Tumour suppressor p53/oncoprotein Mdm2 (Homo sapiens); test: Inhibition of MDM2-p53 interaction in human HCT116 cells assessed as p53 activation by measuring increase in p21 level at 4.2 uM after 48 hrs by Western blot analysis; format: cell-based

T1 sequence (P04637 whole entry, looked up): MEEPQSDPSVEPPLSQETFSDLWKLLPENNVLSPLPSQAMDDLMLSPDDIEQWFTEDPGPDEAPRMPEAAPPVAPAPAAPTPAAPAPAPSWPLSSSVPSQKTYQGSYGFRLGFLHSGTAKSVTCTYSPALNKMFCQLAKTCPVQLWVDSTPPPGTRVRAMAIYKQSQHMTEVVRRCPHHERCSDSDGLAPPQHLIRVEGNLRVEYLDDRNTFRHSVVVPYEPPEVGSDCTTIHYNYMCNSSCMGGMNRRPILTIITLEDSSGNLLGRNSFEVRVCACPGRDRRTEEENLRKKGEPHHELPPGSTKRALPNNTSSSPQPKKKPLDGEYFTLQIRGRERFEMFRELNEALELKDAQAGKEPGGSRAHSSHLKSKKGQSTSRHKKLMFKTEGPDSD
T1 sequence (Q00987 whole entry, looked up): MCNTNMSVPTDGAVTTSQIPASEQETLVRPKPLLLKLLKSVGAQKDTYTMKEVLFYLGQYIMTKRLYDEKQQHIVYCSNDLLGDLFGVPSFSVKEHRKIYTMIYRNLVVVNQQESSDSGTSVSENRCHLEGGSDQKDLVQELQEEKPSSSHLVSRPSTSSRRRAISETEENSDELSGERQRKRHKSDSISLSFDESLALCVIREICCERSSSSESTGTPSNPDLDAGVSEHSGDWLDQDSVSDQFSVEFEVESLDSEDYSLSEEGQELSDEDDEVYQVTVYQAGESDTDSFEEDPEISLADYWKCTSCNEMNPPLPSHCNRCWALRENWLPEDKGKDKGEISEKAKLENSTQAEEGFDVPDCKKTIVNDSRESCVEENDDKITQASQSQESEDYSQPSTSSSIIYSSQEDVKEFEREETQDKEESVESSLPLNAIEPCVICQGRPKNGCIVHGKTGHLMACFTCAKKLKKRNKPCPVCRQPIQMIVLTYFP

pIC50 [2]: 4.97 | inhibition [4]: Active
SMILES: COc1ccc(/C=C/C(=O)c2c(O)cc(OC)cc2OC)cc1 [FLAVOKAWAIN A]
growth inhibition (GI) [1]: Non-Toxic | growth inhibition (GI) [3]: Non-Toxic | growth inhibition (GI) [5]: Non-Toxic

pIC50 [2]: 5.51
SMILES: COc1cccc(/C=C/C(=O)c2c(O)cc(OC)cc2OC)c1

pIC50 [2]: 5.57
SMILES: COc1cc(O)c(C(=O)/C=C/c2cccc(Cl)c2Cl)c(OC)c1

pIC50 [2]: 4.56
SMILES: COc1cc(O)c(C(=O)/C=C/c2ccc(OC)c(OC)c2)c(OC)c1

pIC50 [2]: 5.24
SMILES: COc1cc(OC)c(C(=O)/C=C/c2ccc(OC)c(OC)c2)c(OCC=C(C)C)c1

pIC50 [2]: 5.36
SMILES: COc1cc(O)c(C(=O)/C=C/c2ccc(F)cc2)c(OC)c1

pIC50 [2]: 5.46
SMILES: COc1cc(O)c(C(=O)/C=C/c2cccc(OC)c2OC)c(OC)c1

pIC50 [2]: 4.85
SMILES: COc1cc(O)c(C(=O)/C=C/c2ccc(Br)cc2)c(OC)c1

pIC50 [2]: 4.30 | inhibition [4]: Active
SMILES: COc1ccc(/C=C/C(=O)c2c(O)cc(OC)cc2OC)c(OC)c1
growth inhibition (GI) [1]: Non-Toxic | growth inhibition (GI) [3]: Non-Toxic | growth inhibition (GI) [5]: Non-Toxic

pIC50 [2]: 5.72
SMILES: COc1cc(O)c(C(=O)/C=C/c2cc(Cl)cc(Cl)c2)c(OC)c1

More lines, now with the values behind:

SMILES: COc1cc(OC)c(C(=O)/C=C/c2ccc(F)cc2)c(OCC=C(C)C)c1
pIC50 [2]: 5.49

SMILES: COc1cc(/C=C/C(=O)c2c(OC)cc(OC)cc2OCC=C(C)C)cc(OC)c1
pIC50 [2]: 5.46

SMILES: COc1cc(O)c(C(=O)/C=C/c2cccc(OC)c2OC)c(OC)c1CC=C(C)C
growth inhibition (GI) [1]: Non-Toxic | pIC50 [2]: 4.53 | growth inhibition (GI) [3]: Non-Toxic | inhibition [4]: Active | growth inhibition (GI) [5]: Non-Toxic

SMILES: COc1cc(OC)c(C(=O)/C=C/c2cccc(OC)c2OC)c(OCC=C(C)C)c1
growth inhibition (GI) [1]: Non-Toxic | pIC50 [2]: 4.93 | growth inhibition (GI) [3]: Non-Toxic | inhibition [4]: Active | growth inhibition (GI) [5]: Non-Toxic

SMILES: COc1ccc(C2=N[C@@H](c3ccc(Cl)cc3)[C@@H](c3ccc(Cl)cc3)N2C(=O)N2CCNC(=O)C2)c(OC(C)C)c1 [NUTLIN-3]
growth inhibition (GI) [6]: Non-Toxic | growth inhibition (GI) [7]: Non-Toxic | growth inhibition (GI) [8]: Non-Toxic

SMILES: COc1cccc(/C=C/C(=O)c2c(O)c(CC=C(C)C)c(OC)c(CC=C(C)C)c2OC)c1OC
pIC50 [2]: 4.82

SMILES: COc1cc(OC)c(C(=O)/C=C/c2cc(OC)c(OC)c(OC)c2)c(OCC=C(C)C)c1CC=C(C)C
pIC50 [2]: 5.54

SMILES: COc1cccc(/C=C/C(=O)c2c(OC)cc(OC)cc2OCC=C(C)C)c1
pIC50 [2]: 5.11

SMILES: COc1cc(OC)c(C(=O)/C=C/c2cc(Cl)cc(Cl)c2)c(OCC=C(C)C)c1
pIC50 [2]: 4.61

SMILES: COc1cc(OCC=C(C)C)c(C(=O)/C=C/c2cc(OC)c(OC)c(OC)c2)c(OC)c1CC=C(C)C
pIC50 [2]: 5.38

SMILES: COc1ccc(/C=C/C(=O)c2c(OC)cc(OC)cc2OCC=C(C)C)cc1
pIC50 [2]: 5.12

SMILES: COc1cc(OC)c(C(=O)/C=C/c2cccc(Cl)c2Cl)c(OCC=C(C)C)c1
pIC50 [2]: 5.72

SMILES: COc1ccc(/C=C/C(=O)c2c(OCC=C(C)C)cc(OC)c(CC=C(C)C)c2OC)cc1OC
pIC50 [2]: 5.13

SMILES: COc1cc(OC)c(C(=O)/C=C/c2ccc(Br)cc2)c(OCC=C(C)C)c1
pIC50 [9]: 5.44 | pIC50 [10]: 6.77 | pIC50 [11]: 5.80 | Activity [12]: Active | growth inhibition (GI) [1]: Non-Toxic | inhibition [13]: Active | Activity [14]: Active | inhibition [15]: Active | pIC50 [2]: 5.68 | growth inhibition (GI) [3]: Non-Toxic | selectivity ratio [16]: 3 | selectivity ratio [17]: 3 | selectivity ratio [18]: 3 | inhibition [4]: Active | pIC50 [19]: 5.55 | inhibition [20]: Active | inhibition [21]: Active | inhibition [22]: Active | growth inhibition (GI) [5]: Non-Toxic | selectivity ratio [23]: 3 | Activity [24]: Active | inhibition [25]: Active
